Source: PMC6001238, “Iterative Chemical Engineering of Vancomycin Leads to Novel Vancomycin Analogs With a High in Vitro Therapeutic Index” (Frontiers in Microbiology, 2018)
≈ marks a conversion by molar mass, not a printed value. Where two headings read alike, the source gives them in different places.

What was measured:
VE 150 (VanB) = assay: MIC, VanB-type VRE strain VE 150; type: cell-based, Enterococcus; details: Enterococcus; VE 150, VanB; read-out: MIC
Experimental: (§1) The minimum inhibitory concentration (MIC) was determined using the broth microdilution method according to the antimicrobial susceptibility testing standards of the clinical and laboratory standards institute ([Clinical and Laboratory Standards Institute [CLSI], 2012]). Ultrapure water and non-inoculated broth were used as controls. In one case, a final concentration of 10 μM vancomycin was included with the vancomycin analog or control antibiotic.

VE 149 (VanB) = assay: MIC, VanB-type VRE strain VE 149; type: cell-based, Enterococcus; details: Enterococcus; VE 149, VanB; read-out: MIC
Experimental: as §1

E. faecalis VRE 6 = assay: MIC, broth microdilution, vancomycin-resistant E. faecalis VRE 6 (VanA); type: cell-based, Enterococcus faecalis
Outline: (§2)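 Read-out: lowest concentration inhibiting growth in broth microdilution, CLSI method. Water and broth-only wells acted as controls; in one case 10 μM vancomycin (final) was present with the compound.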

E. faecalis VRE 37 = assay: MIC, broth microdilution, vancomycin-resistant E. faecalis VRE 37 (VanA); type: cell-based, Enterococcus faecalis
Outline: as §2

[1] = test system: human cervix carcinoma (HeLa) cells; assay: Cytostatic activity, HeLa cell proliferation; type: cell-based; details: Homo sapiens, HeLa, 96 h; mean ± SD of three experiments; highest concentration tested 250 µM; 4 days; read-out: Toxicity (IC50) HeLa
Outline: (§3)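 Test compounds, serially diluted, received an equal volume of cell suspension at 300,000–500,000 cells/mL. After 37°C incubation (2 days for L1210, 3 for CEM, 4 for HeLa), cells were enumerated by Coulter counting and 50%-inhibitory concentrations calculated per cell type.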

VE 152 (VanB) = assay: MIC, VanB-type VRE strain VE 152; type: cell-based, Enterococcus; details: Enterococcus; VE 152, VanB; read-out: MIC
Experimental: as §1

33 clinical VRE isolates = assay: MIC against a set of 33 clinical VRE isolates (range, MIC50, TI); type: cell-based, Enterococcus faecalis
Experimental: as §1

MRSA KS2 = assay: MIC, broth microdilution, MRSA KS2; type: cell-based, Staphylococcus aureus
Outline: as §2

[2] = test system: 24 clinical MRSA isolates; assay: MIC against a set of 24 clinical MRSA isolates (range, MIC50, TI); type: cell-based, Staphylococcus aureus
Experimental: as §1

VE 82 (VanC1) = assay: MIC, VanC1-type VRE strain VE 82; type: cell-based, Enterococcus gallinarum; details: Enterococcus gallinarum; VE 82, VanC1; read-out: MIC
Experimental: as §1

VE 148 (VanB) = assay: MIC, VanB-type VRE strain VE 148; type: cell-based, Enterococcus; details: Enterococcus; VE 148, VanB; read-out: MIC
Experimental: as §1

[3] = test system: Murine leukemia (L1210) cells; assay: Cytostatic activity, L1210 cell proliferation; type: cell-based; details: Mus musculus, L1210, 48 h; mean ± SD of three experiments; highest concentration tested 250 µM; 2 days; read-out: Toxicity (IC50) L1210
Outline: as §3

VE 157 (VanB) = assay: MIC, VanB-type VRE strain VE 157; type: cell-based, Enterococcus; details: Enterococcus; VE 157, VanB; read-out: MIC
Experimental: as §1

[4] = test system: human T-lymphocyte (CEM) cells; assay: Cytostatic activity, CEM cell proliferation; type: cell-based; details: Homo sapiens, CCRF-CEM, 72 h; mean ± SD of three experiments; highest concentration tested 250 µM; 3 days; read-out: Toxicity (IC50) CEM
Outline: as §3

E. faecalis VRE 29 = assay: MIC, broth microdilution, vancomycin-resistant E. faecalis VRE 29 (VanA); type: cell-based, Enterococcus faecalis
Outline: as §2

S. aureus VRSA = assay: MIC, broth microdilution, vancomycin-resistant S. aureus (VRSA); type: cell-based, Staphylococcus aureus
Outline: as §2

S. aureus VISA/HIP5827 = assay: MIC, broth microdilution, vancomycin-intermediate S. aureus VISA HIP5827; type: cell-based, Staphylococcus aureus
Outline: as §2

E. faecalis VSE 1 = assay: MIC, broth microdilution, vancomycin-sensitive E. faecalis (VSE 1); type: cell-based, Enterococcus faecalis
Outline: as §2

E. faecalis VRE 53 = assay: MIC, broth microdilution, vancomycin-resistant E. faecalis VRE 53 (VanA); type: cell-based, Enterococcus faecalis
Outline: as §2

[5] = test system: L1210, CEM and HeLa cell lines; assay: Cytostatic activity, average or summary over L1210, CEM and HeLa; type: cell-based
Outline: as §3

MRSA = assay: Minimum bactericidal concentration against MRSA; type: cell-based, Staphylococcus aureus
Experimental: Plates were incubated overnight at 37°C and colony growth was inspected.

[6] = test system: S. aureus VSSA (ATCC 6538); assay: MIC, broth microdilution, vancomycin-sensitive S. aureus (VSSA/MSSA, ATCC 6538); type: cell-based, Staphylococcus aureus
Outline: as §2

MRSA KS6 = assay: MIC, broth microdilution, MRSA KS6; type: cell-based, Staphylococcus aureus
Outline: as §2

MRSA KS89 = assay: MIC, broth microdilution, MRSA KS89; type: cell-based, Staphylococcus aureus
Outline: as §2

MRSA KS1 = assay: MIC, broth microdilution, MRSA KS1; type: cell-based, Staphylococcus aureus
Outline: as §2

MIC (VE 150 (VanB)): 1.56 µM (≈ 0.914 µg/mL) | MIC (VE 149 (VanB)): 1.56 µM (≈ 0.914 µg/mL) | MIC (E. faecalis VRE 6; Enterococcus faecalis VRE 6 (vancomycin-resistant), read-out: MIC): 3.13 µM (≈ 1.83 µg/mL) | MIC-fold improvement vs. vancomycin (E. faecalis VRE 6; VRE 6, ratio of MIC of vancomycin and MIC of analogue): 64 | MIC (E. faecalis VRE 37; Enterococcus faecalis VRE 37 (vancomycin-resistant), read-out: MIC): 3.13 µM (≈ 1.83 µg/mL) | MIC-fold improvement vs. vancomycin (E. faecalis VRE 37; VRE 37, ratio of MIC of vancomycin and MIC of analogue): 128 | MIC (VE 152 (VanB)): 1.56 µM (≈ 0.914 µg/mL) | MIC Range (33 clinical VRE isolates; 33 clinical VRE isolates): ≤0.02 to 0.78 µM | MIC50 (33 clinical VRE isolates; Enterococcus, median MIC, 33 clinical VRE isolates, read-out: MIC50): 0.2 µM (≈ 0.117 µg/mL) | MIC-fold improvement vs. vancomycin (MRSA KS2; MRSA KS2, ratio of MIC of vancomycin and MIC of analogue): 0.5 | MIC (MRSA KS2; Staphylococcus aureus MRSA KS2, read-out: MIC): 1.56 µM (≈ 0.914 µg/mL) | MIC Range ([2]; 24 clinical MRSA isolates): 0.78 to 6.25 µM | MIC50 ([2]; Staphylococcus aureus, median MIC, 24 clinical MRSA isolates, read-out: MIC50): 1.56 µM (≈ 0.914 µg/mL) | MIC (VE 82 (VanC1)): 0.78 µM (≈ 0.457 µg/mL) | MIC (VE 148 (VanB)): 3.13 µM (≈ 1.83 µg/mL) | MIC (VE 157 (VanB)): 1.56 µM (≈ 0.914 µg/mL) | MIC (E. faecalis VRE 29; Enterococcus faecalis VRE 29 (vancomycin-resistant), read-out: MIC): 3.13 µM (≈ 1.83 µg/mL) | MIC-fold improvement vs. vancomycin (E. faecalis VRE 29; VRE 29, ratio of MIC of vancomycin and MIC of analogue): 128 | MIC (S. aureus VRSA; Staphylococcus aureus VRSA, read-out: MIC): 3.13 µM (≈ 1.83 µg/mL) | MIC-fold improvement vs. vancomycin (S. aureus VRSA; VRSA, ratio of MIC of vancomycin and MIC of analogue): 32 | MIC (S. aureus VISA/HIP5827; Staphylococcus aureus VISA/HIP5827, read-out: MIC): 3.13 µM (≈ 1.83 µg/mL) | MIC-fold improvement vs. vancomycin (S. aureus VISA/HIP5827; VISA/HIP5827, ratio of MIC of vancomycin and MIC of analogue): 2 | MIC (E. faecalis VSE 1; VSE1, Enterococcus faecalis VSE 1 (vancomycin-sensitive), read-out: MIC): 3.13 µM (≈ 1.83 µg/mL) | MIC-fold improvement vs. vancomycin (E. faecalis VSE 1; VSE 1, ratio of MIC of vancomycin and MIC of analogue): 0.5 | MIC (E. faecalis VRE 53; Enterococcus faecalis VRE 53 (vancomycin-resistant), read-out: MIC): 3.13 µM (≈ 1.83 µg/mL) | MIC-fold improvement vs. vancomycin (E. faecalis VRE 53; VRE 53, ratio of MIC of vancomycin and MIC of analogue): 128 | IC50 ([5]; average IC50 used for TI in Table S5, >250 entered as 250, read-out: IC50): 14 µM | MIC ([6]; ATCC6538, Staphylococcus aureus VSSA, read-out: MIC): 3.13 µM (≈ 1.83 µg/mL) | MIC-fold improvement vs. vancomycin ([6]; VSSA, ratio of MIC of vancomycin and MIC of analogue): 0.3 | MIC-fold improvement vs. vancomycin (MRSA KS6; MRSA KS6, ratio of MIC of vancomycin and MIC of analogue): 0.5 | MIC (MRSA KS6; Staphylococcus aureus MRSA KS6, read-out: MIC): 1.56 µM (≈ 0.914 µg/mL) | MIC-fold improvement vs. vancomycin (MRSA KS89; MRSA KS8 (head; KS89 in title), ratio of MIC of vancomycin and MIC of analogue): 0.5 | MIC (MRSA KS89; Staphylococcus aureus MRSA KS8 (head; KS89 in title), read-out: MIC): 1.56 µM (≈ 0.914 µg/mL) | MIC-fold improvement vs. vancomycin (MRSA KS1; MRSA KS1, ratio of MIC of vancomycin and MIC of analogue): 0.5 | MIC (MRSA KS1; Staphylococcus aureus MRSA KS1, read-out: MIC): 1.56 µM (≈ 0.914 µg/mL)
Compound: CN(C)c1cc(NC(=O)CNC(C)(C)C)c(O)c2c1C[C@H]1C[C@H]3[C@H](N(C)C)C(O)=C(C(N)=O)C(=O)[C@@]3(O)C(O)=C1C2=O [Tigecycline, reference compound]
IC50 [1]: 24 ± 17 µM | TI (IC50/MIC50) (33 clinical VRE isolates; in vitro therapeutic index, VRE): 70 | TI (IC50/MIC50) ([2]; in vitro therapeutic index, MRSA): 9 | IC50 [3]: 9.4 ± 3.2 µM | IC50 [4]: 7.1 ± 2.1 µM | IC50 ([5]; average of L1210, CEM and HeLa, read-out: Toxicity (IC50) Average): 14 µM | MBC relative to MIC (MRSA): more than four times higher than the corresponding MIC
